# Tests used:
# [1] = target: Serine-protein kinase ATM (Homo sapiens, UniProt Q13315); test: Inhibitory Activities of Compounds on ATM
# Method: To a 96-well plate, 98 μL of DMSO and 2 μL of the 10 mM stock solution were added and mixed evenly so that the concentration of the solution was 200 μM.
# [2] = target: Serine/threonine-protein kinase ATR (Homo sapiens, UniProt Q13535); test: Inhibitory Activity of Compounds on ATR
# Method: (1) Preparation of 1 kinase buffer and reaction termination solution1) 1 kinase buffer50 mM HEPES, pH 7.50.0015% Brij-[…] MnCl22) Reaction termination solution100 mM HEPES, pH 7.50.015% Brij-350.2% Coating Reagent #350 mM EDTA(2) Preparation of test compound1) The compound was dissolved in DMSO to yield a stock solution. Before the assay, to a 96-well plate, 30 uL of a 10 mM stock solution was taken and added with 60 uL of DMSO. […] 10 µL of the 2 substrate solution was taken to each well of the test plate.3) Kinase reaction:After incubation at 28 C. for a certain time, 30 uL of the reaction termination solution was added to terminate the enzymatic reaction.(5) Reading of the reaction wells(6) Calculation of inhibitory rates by means of curve fitting to the read values.% inhibitory rate=(max+-sample value)/(max+-min)*100; wherein max represents the value of the total reaction well with DMSO but no compound; min represents the value of the blank control well without enzyme and compound.
# [3] = target: DNA-dependent protein kinase catalytic subunit (Homo sapiens, UniProt P78527); test: Inhibitory Activities of Compounds on DNA-PK Kinase: ADP-Glo Kinase Assay
# Method: (1) Preparation of 1× kinase buffer40 mM Tris, pH 7.50.0055% Brij-3520 mM MgCl20.05 mM DTT(2) Preparation of test compound1) The compound was dissolved in DMSO to yield a stock solution. Before the assay, the stock solution of the compound was diluted with DMSO to yield a 100× solution at a concentration that is 100 times a target concentration for assay. […] The test plate was shaken for mixing evenly.3) Kinase reactionEach well of the test plate was covered and incubated at room temperature for 3 h.(4) Kinase detection1) The ADP-Glo reagent was equilibrated at room temperature.2) 5 μL of ADP-Glo reagent was added to each well of the test plate to terminate the reaction.3) The plate was centrifuged for a short time to mix evenly, shaken gently, and equilibrated for 120 min.4) 10 μL of kinase detection reagent was added to each well, with shaking for 1 min, after equilibrating for 30 min, […] detection was performed.(5) Reading of the reaction wells(6) Calculation of inhibitory rates by means of curve fitting to the read values.
# [4] = target: T1, Phosphatidylinositol 4,5-bisphosphate 3-kinase catalytic subunit delta isoform (Homo sapiens, UniProt O00329); test: Inhibitory Activities of Compounds on PI3Kα, PI3Kβ, PI3Kγ, and PI3Kδ Kinase: ADP-Glo Kinase Assay
# T1 sequence (O00329 whole entry): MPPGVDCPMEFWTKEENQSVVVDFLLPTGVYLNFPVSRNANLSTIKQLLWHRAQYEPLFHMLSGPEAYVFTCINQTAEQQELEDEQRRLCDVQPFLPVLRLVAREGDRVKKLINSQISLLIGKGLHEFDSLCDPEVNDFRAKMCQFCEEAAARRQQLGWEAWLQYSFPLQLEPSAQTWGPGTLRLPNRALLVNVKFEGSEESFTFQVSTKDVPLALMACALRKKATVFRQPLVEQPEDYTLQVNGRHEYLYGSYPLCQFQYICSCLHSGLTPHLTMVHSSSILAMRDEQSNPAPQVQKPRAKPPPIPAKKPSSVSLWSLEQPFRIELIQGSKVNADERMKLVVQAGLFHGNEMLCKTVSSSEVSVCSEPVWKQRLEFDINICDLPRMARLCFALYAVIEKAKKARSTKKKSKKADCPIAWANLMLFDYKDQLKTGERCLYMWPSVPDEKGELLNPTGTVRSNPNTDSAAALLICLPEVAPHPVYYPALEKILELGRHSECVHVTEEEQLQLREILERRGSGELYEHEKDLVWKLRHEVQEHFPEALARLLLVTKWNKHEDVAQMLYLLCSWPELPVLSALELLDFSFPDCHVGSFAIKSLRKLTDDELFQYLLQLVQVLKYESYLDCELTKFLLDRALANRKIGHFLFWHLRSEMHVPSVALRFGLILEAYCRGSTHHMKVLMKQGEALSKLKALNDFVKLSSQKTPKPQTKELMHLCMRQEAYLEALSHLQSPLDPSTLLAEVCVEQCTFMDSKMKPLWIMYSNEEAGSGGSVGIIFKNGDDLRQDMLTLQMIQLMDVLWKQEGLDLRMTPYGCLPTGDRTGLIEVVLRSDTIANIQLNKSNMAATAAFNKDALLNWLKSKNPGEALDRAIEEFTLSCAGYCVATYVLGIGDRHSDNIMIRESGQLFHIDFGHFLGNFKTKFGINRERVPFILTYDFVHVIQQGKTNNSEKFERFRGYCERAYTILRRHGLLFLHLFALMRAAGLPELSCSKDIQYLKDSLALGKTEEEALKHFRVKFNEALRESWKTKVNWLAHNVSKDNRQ
# Method: (§1) (1) Preparation of 1× kinase buffer50 mM HEPES, pH 7.53 mM MgCl21 mM EGTA100 mM NaCl0.03% CHAPS2 mM DTT(2) Preparation of test compound1) Dissolution and dilution of compound:The compound was dissolved in DMSO to yield a stock solution. Before the assay, the stock solution of the compound was diluted with DMSO in a 384-well plate to yield a 100× solution at a concentration that is 100 times a target concentration for assay.50 μL of DMSO was added, respectively, into two blank wells in the same 384 well plate, corresponding to the total reaction control without compound and the blank control without enzyme.2) Preparation of test plate: 50 nL of the compound solution in each of the above wells was taken to a test plate.(3) Kinase reaction1) PI3Kα, PI3Kβ, PI3Kγ, and PI3Kδ kinases were dissolved, respectively, in 1× kinase buffer to yield a 2× enzyme solution at a concentration that is twice the final concentration. 2.5 µL of the 2× enzyme solution was taken to each well of the test plate. The blank control without enzyme was added with 2.5 μL of the 1× kinase buffer instead of the enzyme solution. The test plate was shaken for mixing evenly.2) PIP2 substrate and ATP were dissolved in the 1× kinase buffer to yield a 2× substrate solution that is twice the final concentration. 2.5 μL of the 2× substrate solution was taken to each well of the test plate. The test plate was shaken for mixing evenly.3) Kinase reactionEach well of the test plate was covered and incubated at room temperature for 1 h.(4) Kinase detection1) The ADP-Glo reagent was equilibrated at room temperature.2) 5 μL of ADP-Glo reagent was added to each well of the test plate to terminate the reaction.3) The plate was centrifuged for a short time to mix evenly, shaken gently, and equilibrated for 120 min.4) 10 μL of kinase detection reagent was added to each well, with shaking for 1 min, after equilibrating for 30 min, […] detection was performed.(5) Reading of the reaction wells(6) Calculation of inhibitory rates by means of curve fitting to the read values
# [5] = target: Phosphatidylinositol 4,5-bisphosphate 3-kinase catalytic subunit alpha isoform (Homo sapiens, UniProt P42336); test: as above
# Method: as §1
# [6] = target: Phosphatidylinositol 4,5-bisphosphate 3-kinase catalytic subunit beta isoform (Homo sapiens, UniProt P42338); test: as above
# Method: as §1
# [7] = target: Phosphatidylinositol 4,5-bisphosphate 3-kinase catalytic subunit gamma isoform (Homo sapiens, UniProt P48736); test: as above
# Method: as §1
# Serine-protein kinase ATM, sequence (Q13315 whole entry): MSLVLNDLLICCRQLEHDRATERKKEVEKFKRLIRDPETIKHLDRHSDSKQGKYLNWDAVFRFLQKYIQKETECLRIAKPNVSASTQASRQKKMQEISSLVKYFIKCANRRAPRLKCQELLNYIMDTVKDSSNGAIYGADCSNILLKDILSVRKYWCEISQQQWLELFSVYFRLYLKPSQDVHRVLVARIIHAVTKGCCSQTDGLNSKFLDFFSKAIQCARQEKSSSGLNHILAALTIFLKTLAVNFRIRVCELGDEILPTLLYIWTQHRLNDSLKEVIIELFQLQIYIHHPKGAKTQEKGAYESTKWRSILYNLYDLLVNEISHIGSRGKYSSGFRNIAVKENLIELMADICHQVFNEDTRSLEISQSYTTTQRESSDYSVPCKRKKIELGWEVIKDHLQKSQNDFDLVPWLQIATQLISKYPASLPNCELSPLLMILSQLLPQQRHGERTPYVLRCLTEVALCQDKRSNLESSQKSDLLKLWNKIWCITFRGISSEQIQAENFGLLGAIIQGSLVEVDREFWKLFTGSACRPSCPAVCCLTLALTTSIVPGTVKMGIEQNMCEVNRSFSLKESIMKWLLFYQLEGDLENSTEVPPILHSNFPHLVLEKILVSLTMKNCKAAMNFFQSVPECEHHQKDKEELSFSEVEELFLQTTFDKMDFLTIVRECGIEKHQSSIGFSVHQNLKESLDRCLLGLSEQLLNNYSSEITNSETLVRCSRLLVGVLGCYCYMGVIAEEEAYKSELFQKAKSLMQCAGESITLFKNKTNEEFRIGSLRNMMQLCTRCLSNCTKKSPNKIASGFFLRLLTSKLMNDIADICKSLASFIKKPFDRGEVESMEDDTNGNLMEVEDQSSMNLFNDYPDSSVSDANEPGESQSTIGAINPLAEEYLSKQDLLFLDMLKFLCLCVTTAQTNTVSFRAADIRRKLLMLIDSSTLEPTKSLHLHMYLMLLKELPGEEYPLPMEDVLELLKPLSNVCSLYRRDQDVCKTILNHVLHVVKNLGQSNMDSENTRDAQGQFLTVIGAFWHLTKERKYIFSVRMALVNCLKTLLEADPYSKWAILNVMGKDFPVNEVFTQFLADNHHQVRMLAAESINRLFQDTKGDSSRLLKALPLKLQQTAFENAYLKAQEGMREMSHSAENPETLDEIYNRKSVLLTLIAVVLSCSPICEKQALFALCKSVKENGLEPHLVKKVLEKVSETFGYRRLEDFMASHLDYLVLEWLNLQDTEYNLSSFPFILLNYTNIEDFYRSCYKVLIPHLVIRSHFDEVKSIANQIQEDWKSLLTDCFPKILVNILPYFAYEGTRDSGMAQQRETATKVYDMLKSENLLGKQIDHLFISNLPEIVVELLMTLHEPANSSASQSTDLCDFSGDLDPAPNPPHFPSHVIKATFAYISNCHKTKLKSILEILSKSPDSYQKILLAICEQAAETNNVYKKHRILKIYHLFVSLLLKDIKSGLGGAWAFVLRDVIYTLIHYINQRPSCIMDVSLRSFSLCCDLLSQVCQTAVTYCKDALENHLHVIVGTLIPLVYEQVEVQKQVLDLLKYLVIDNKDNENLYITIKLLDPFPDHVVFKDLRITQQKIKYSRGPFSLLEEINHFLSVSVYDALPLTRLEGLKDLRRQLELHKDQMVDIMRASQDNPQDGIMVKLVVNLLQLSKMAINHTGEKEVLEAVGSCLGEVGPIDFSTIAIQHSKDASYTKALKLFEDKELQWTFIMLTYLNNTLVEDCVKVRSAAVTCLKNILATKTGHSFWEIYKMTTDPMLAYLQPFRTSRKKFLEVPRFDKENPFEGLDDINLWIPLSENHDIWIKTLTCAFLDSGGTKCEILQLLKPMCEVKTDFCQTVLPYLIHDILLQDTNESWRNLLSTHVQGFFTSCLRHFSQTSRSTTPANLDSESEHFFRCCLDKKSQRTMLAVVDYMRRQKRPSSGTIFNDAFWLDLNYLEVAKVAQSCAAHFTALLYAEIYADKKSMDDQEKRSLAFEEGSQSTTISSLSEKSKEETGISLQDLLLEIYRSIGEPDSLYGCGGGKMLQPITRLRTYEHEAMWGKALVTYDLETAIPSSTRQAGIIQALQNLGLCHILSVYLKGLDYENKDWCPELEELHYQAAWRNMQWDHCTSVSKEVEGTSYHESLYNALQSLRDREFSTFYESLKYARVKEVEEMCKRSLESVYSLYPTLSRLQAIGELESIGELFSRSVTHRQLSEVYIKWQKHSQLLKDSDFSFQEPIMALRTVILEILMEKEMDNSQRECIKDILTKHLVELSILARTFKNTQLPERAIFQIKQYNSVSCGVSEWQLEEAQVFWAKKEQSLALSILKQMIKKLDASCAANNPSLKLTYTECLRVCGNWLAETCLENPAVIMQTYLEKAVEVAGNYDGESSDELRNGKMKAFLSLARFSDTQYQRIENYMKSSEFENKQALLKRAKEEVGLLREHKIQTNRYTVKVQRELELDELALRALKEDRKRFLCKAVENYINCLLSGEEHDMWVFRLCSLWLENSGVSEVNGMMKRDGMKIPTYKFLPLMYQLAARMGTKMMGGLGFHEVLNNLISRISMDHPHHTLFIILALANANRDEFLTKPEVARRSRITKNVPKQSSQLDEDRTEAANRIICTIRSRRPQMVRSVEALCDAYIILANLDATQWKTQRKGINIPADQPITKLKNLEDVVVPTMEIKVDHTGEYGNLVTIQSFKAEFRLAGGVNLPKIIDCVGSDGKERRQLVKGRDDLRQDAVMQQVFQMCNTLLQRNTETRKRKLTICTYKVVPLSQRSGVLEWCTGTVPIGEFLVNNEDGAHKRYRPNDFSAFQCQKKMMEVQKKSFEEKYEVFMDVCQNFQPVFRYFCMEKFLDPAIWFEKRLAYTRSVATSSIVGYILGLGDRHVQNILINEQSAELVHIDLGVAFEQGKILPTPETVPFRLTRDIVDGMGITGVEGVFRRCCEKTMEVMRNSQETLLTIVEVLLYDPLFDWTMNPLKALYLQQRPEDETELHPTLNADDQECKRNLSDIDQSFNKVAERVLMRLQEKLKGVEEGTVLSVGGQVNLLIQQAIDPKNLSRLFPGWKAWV
# Phosphatidylinositol 4,5-bisphosphate 3-kinase catalytic subunit gamma isoform, sequence (P48736 whole entry, canonical isoform): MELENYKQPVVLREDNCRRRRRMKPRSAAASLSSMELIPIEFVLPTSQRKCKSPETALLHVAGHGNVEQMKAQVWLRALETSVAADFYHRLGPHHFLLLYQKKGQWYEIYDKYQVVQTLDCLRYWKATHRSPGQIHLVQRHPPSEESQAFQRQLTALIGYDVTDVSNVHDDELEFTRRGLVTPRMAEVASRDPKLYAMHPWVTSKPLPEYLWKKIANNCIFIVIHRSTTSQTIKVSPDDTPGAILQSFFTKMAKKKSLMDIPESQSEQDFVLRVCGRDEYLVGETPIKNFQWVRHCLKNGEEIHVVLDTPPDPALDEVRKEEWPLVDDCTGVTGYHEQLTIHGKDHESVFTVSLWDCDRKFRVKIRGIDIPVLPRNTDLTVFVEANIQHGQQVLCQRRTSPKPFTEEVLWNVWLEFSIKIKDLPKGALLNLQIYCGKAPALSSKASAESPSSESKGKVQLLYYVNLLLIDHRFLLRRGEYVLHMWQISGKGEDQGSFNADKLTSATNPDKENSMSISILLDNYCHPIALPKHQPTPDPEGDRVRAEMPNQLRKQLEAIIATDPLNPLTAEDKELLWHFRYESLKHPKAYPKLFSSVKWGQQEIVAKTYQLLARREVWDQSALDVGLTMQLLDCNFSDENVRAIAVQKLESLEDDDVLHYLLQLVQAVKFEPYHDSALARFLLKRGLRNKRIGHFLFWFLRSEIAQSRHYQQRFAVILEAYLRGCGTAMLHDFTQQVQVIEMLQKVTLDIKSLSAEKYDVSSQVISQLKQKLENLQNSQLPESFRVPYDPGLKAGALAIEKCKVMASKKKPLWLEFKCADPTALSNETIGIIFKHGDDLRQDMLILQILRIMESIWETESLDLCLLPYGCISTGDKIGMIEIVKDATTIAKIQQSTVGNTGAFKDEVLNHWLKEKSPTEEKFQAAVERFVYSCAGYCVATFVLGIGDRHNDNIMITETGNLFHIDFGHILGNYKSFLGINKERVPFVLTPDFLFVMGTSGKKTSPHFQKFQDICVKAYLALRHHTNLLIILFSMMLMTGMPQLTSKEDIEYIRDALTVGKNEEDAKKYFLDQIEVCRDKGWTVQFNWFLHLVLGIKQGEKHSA
IC50 [1] [nM],Structure (SMILES),other results
0.61,"CC[C@@H]1CNc2c(-c3ccc(OCCCN4CCCCC4)nc3)ccc3ncc4c(c23)n1c(=O)n4C [US20240294545, Compound A-201]",–
0.37,"Cn1c(=O)n2c3c4c(c(-c5ccc(OCCCN6CCC(F)CC6)nc5)c(F)cc4ncc31)OCC21CCC1 [US20240294545, Compound A-165]",–
0.33,"Cn1c(=O)n2c3c4c(c(-c5ccc(OCCCN6CCC7(CC6)COC7)nc5)c(F)cc4ncc31)OCC21CCC1 [US20240294545, Compound A-167]",–
0.78,"Cn1c(=O)n2c3c4c(c(-c5ccc(OCCCN6CCCCC6)nc5)c(F)cc4ncc31)OCC21CCOCC1 [US20240294545, Compound A-204]",–

# The remaining lines, values behind:
Structure (SMILES),IC50 [1] [nM],other results
"Cn1c(=O)n2c3c4c(c(-c5ccc(OCCCN6CCC(C#N)CC6)nc5)c(F)cc4ncc31)OCC21CCC1 [US20240294545, Compound A-166]",0.21,–
"COc1cc2ncc3c4c2c(oc2ccccc2n4c(=O)n3C)c1-c1cnn(C)c1 [US20240294545, Compound A-33]",0.08,–
"Cn1c(=O)n2c3c4c(c(-c5ccc(OCCCN6CC7CC7C6)nc5)c(F)cc4ncc31)OCC21CCC1 (stereo not given) [US20240294545, Compound A-170]",0.7,–
"Cn1c(=O)n2c3c4c(c(-c5ccc(OCCCN6CCCCC6)nc5)c(F)cc4ncc31)OC1CCCCC12 (stereo not given) [US20240294545, Compound A-21]",0.45,IC50 [2]: > 10000 nM; IC50 [3]: 2230 nM; IC50 [4]: > 10000 nM; IC50 [5]: > 10000 nM; IC50 [6]: > 10000 nM; IC50 [7]: > 10000 nM
"CC[C@@H]1CNc2c(-c3ccc(OCCCN4CCCCC4)nc3)c(F)cc3ncc4c(c23)n1c(=O)n4C [US20240294545, Compound A-194]",0.45,–

# Reference: BindingDB's records for patent US20240294545 (Cspc Zhongqi Pharmaceutical Technology (Shijiazhuang), 2024)
